Measured values from patent US8143290B2, “Chemical compounds 572” (AstraZeneca AB, priority 2006, dated 2012).

target: T1, recombinant human GR (Homo sapiens, UniProt P04150); assay: Human Glucocorticoid Receptor (GR) Assay, fluorescence polarization; type: binding; settings: GS Red tracer, incubated 2 h at r.t., XLfit model 205, read-out: GRhuFL_FP_v2 Mean IC50
T1 construct: purchased Panvera/Invitrogen P2812 (kit P2893)
T1 sequence (P04150 1-777): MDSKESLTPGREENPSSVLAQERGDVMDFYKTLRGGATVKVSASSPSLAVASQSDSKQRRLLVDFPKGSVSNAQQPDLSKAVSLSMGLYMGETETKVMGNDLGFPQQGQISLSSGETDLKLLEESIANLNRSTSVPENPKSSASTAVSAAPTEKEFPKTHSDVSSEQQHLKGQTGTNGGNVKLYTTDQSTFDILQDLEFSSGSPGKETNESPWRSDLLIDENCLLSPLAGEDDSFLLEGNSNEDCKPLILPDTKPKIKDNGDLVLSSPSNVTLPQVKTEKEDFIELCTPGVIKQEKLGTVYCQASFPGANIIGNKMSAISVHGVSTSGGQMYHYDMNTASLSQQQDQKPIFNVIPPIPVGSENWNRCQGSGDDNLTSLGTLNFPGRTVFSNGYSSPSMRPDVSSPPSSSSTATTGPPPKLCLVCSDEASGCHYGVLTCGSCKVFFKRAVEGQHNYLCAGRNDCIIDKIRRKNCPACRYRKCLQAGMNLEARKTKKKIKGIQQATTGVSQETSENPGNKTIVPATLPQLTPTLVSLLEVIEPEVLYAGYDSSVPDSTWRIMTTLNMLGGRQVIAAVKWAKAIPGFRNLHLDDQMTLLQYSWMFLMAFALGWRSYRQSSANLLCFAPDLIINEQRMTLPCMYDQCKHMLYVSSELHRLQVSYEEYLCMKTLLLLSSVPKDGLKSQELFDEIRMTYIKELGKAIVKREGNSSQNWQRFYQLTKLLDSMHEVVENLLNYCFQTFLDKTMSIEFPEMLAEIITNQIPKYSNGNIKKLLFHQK
Experimental: Human Glucocorticoid Receptor (GR) Assay
The assay is based on a commercial kit from Panvera/Invitrogen (Part number P2893). The assay technology is fluorescence polarization. […] The GR and Stabilizing Peptide reagents are stored at −70° C. while the GS Red is stored at −20° C. Also included in the kit are 1M DTT (Panvera, Part number P2325, stored at −20° C.) and GR Screening buffer 10× (Panvera, Part number P2814, stored at −70° C. initially but once thawed stored at r.t.). Avoid repeated freeze/thaws for all reagents. The GR Screening buffer 10× comprises 100 mM potassium phosphate, 200 mM sodium molybdate, 1 mM EDTA and 20% DMSO.
0% control was 100% DMSO and 100% control was […] Dexamethasone. Background solution (8 μL; assay buffer 10×, Stabilizing Peptide, DTT and ice cold MQ water) was added to the background wells. GS Red solution (7 μL; assay buffer 10×, Stabilizing Peptide, DTT, GS Red and ice cold water) was added to all wells except background wells. GR solution (7 μL; assay buffer 10×, Stabilizing Peptide, DTT, GR and ice cold water) was added to all wells. The plate was sealed and incubated in a dark at r.t. for 2 h.

Row | IC50 [nM] | Structure (SMILES)
1 | 76 | C[C@@H](NC(=O)C(F)(F)F)[C@H](COc1ccccc1)Oc1ccc2c(cnn2-c2ccc(F)cc2)c1 (single isomer, unassigned) [Example 69, 2,2,2-trifluoro-N-[2R*,3R*-3-[1-(4-fluorophenyl)indazol-5-yl]oxy-4-phenoxy-butan-2-yl]acetamide]
2 | 10 | C[C@H](NC(=O)C(=O)O)[C@H](Oc1ccc2c(cnn2-c2ccc(F)cc2)c1)c1ccccc1 [Example 36, [(1R,2S)-1-[1-(4-fluorophenyl)indazol-5-yl]oxy-1-phenyl-propan-2-yl]carbamoylformic acid]
3 | 3.2 | C[C@H](NC(=O)CO)[C@H](Oc1ccc2c(cnn2-c2ccc(F)cc2)c1)c1ccc2ccccc2c1 [Example 21, N-[(1R,2S)-1-[1-(4-fluorophenyl)indazol-5-yl]oxy-1-naphthalen-2-yl-propan-2-yl]-2-hydroxy-acetamide]
4 | 3.3 | C[C@H](NC(=O)C1(C)CC1)[C@H](Oc1ccc2c(cnn2-c2ccc(F)cc2)c1)c1cccc(Cl)c1 [Example 218, N-[(1R,2S)-1-(3-chlorophenyl)-1-[1-(4-fluorophenyl)indazol-5-yl]oxy-propan-2-yl]-1-methyl-cyclopropane-1-carboxamide]
5 | 2.1 | COc1cccc([C@@H](Oc2ccc3c(cnn3-c3ccc(F)cc3)c2)[C@H](C)NC(=O)c2cocn2)c1 [Example 85, N-((1R,2S)-1-(1-(4-fluorophenyl)-1H-indazol-5-yloxy)-1-(3-methoxyphenyl)propan-2-yl)oxazole-4-carboxamide]
6 | 7.5 | C[C@H](NC(=O)C(C)(C)CO)[C@H](Oc1ccc2c(cnn2-c2ccc(F)cc2)c1)c1cccc(F)c1 [Example 253, N-[(1R,2S)-1-(3-fluorophenyl)-1-[1-(4-fluorophenyl)indazol-5-yl]oxy-propan-2-yl]-3-hydroxy-2,2-dimethyl-propanamide]
7 | 4.6 | COCCOCC(=O)N[C@@H](C)[C@H](Oc1ccc2c(cnn2-c2ccc(F)cc2)c1)c1cccc(OC)c1 [Example 71, N-[(1R,2S)-1-[1-(4-Fluorophenyl)indazol-5-yl]oxy-1-(3-methoxyphenyl)propan-2-yl]-2-(2-methoxyethoxy)acetamide]
8 | 2.6 | COc1cccc([C@@H](Oc2ccc3c(cnn3-c3ccc(F)cc3)c2)[C@H](C)NC(=O)C(=O)OC(C)C)c1 [Example 77, Propan-2-yl [(1R,2S)-1-[1-(4-fluorophenyl)indazol-5-yl]oxy-1-(3-methoxyphenyl)propan-2-yl]carbamoylformate]
9 | 2 | COCC(=O)N[C@@H](C)[C@H](Oc1ccc2c(cnn2-c2ccc(F)cc2)c1)c1ccc(SC)cc1 [Example 9, N-[(1R,2S)-1-[1-(4-fluorophenyl)indazol-5-yl]oxy-1-(4-methylsulfanylphenyl)propan-2-yl]-2-methoxy-acetamide]
10 | 4.4 | C[C@H](NC(=O)C(C)(C)F)[C@H](Oc1ccc2c(cnn2-c2ccc(F)cc2)c1)c1cccc(Cl)c1 [Example 247, N-[(1R,2S)-1-(3-chlorophenyl)-1-[1-(4-fluorophenyl)indazol-5-yl]oxy-propan-2-yl]-2-fluoro-2-methyl-propanamide]
11 | 6.4 | C[C@H](NC(=O)C(Cl)Cl)[C@H](Oc1ccc2c(cnn2-c2ccc(F)cc2)c1)c1ccccc1 [Example 39, 2,2-Dichloro-N-[(1R,2S)-1-[1-(4-fluorophenyl)indazol-5-yl]oxy-1-phenyl-propan-2-yl]acetamide]
12 | 2.1 | C[C@H](NC(=O)C(C)(C)O)[C@H](Oc1ccc2c(cnn2-c2ccc(F)cc2)c1)c1ccccc1 [Example 5, N-[(1R,2S)-1-[1-(4-fluorophenyl)indazol-5-yl]oxy-1-phenyl-propan-2-yl]-2-hydroxy-2-methyl-propanamide]
13 | 2.4 | CSc1ccc([C@@H](Oc2ccc3c(cnn3-c3ccc(F)cc3)c2)[C@H](C)NC(=O)COC(C)=O)cc1 [Example 10, N-[(1R,2S)-1-[1-(4-fluorophenyl)indazol-5-yl]oxy-1-(4-methylsulfanylphenyl)propan-2-yl]carbamoylmethyl acetate]
14 | 89 | C[C@H](NC(=O)C(F)(F)F)[C@H](COc1ccccc1)Oc1ccc2c(cnn2-c2ccc(F)cc2)c1 (racemic) [Example 70, 2,2,2-Trifluoro-N-[(2RS,3SR)-3-[1-(4-fluorophenyl)indazol-5-yl]oxy-4-phenoxy-butan-2-yl]acetamide]

Second part, the compound before the results:

Row | Structure (SMILES) | IC50 [nM]
15 | C[C@H](NC(=O)C(F)(F)F)[C@H](Oc1ccc2c(cnn2-c2ccc(F)cc2)c1)c1ccc(F)c(F)c1 [Example 150, N-[(1R,2S)-1-(3,4-difluorophenyl)-1-[1-(4-fluorophenyl)indazol-5-yl]oxy-propan-2-yl]-2,2,2-trifluoro-acetamide] | 4.6
16 | COc1ccc(F)cc1[C@@H](Oc1ccc2c(cnn2-c2ccc(F)cc2)c1)[C@H](C)NC(=O)C(C)(F)F [Example 235, 2,2-difluoro-N-[(1R,2S)-1-(5-fluoro-2-methoxy-phenyl)-1-[1-(4-fluorophenyl)indazol-5-yl]oxy-propan-2-yl]propanamide] | 5.4
17 | COc1ccc([C@@H](Oc2ccc3c(cnn3-c3ccc(F)cc3)c2)[C@H](C)NC(=O)C(C)(C)C)cc1F [Example 177, N-[(1R,2S)-1-(3-fluoro-4-methoxy-phenyl)-1-[1-(4-fluorophenyl)indazol-5-yl]oxy-propan-2-yl]-2,2-dimethyl-propanamide] | 3.9
18 | Cc1ccc(C)c([C@@H](Oc2ccc3c(cnn3-c3ccc(F)cc3)c2)[C@H](C)NC(=O)C(C)(C)F)c1 [Example 244, N-[(1R,2S)-1-(2,5-dimethylphenyl)-1-[1-(4-fluorophenyl)indazol-5-yl]oxy-propan-2-yl]-2-fluoro-2-methyl-propanamide] | 8.3
19 | COCC(=O)N[C@@H](C)[C@H](Oc1ccc2c(cnn2-c2ncccn2)c1)c1ccccc1 [Example 120, 2-Methoxy-N-[1-methyl-2-phenyl-2-(1-pyrimidin-2-yl-1H-indazol-5-yloxy)-ethyl]-acetamide] | 210
20 | COc1cccc([C@@H](Oc2ccc3c(cnn3-c3ccc(Cl)cc3)c2)[C@H](C)NC(=O)C(F)(F)F)c1 [Example 126, N-((1R,2S)-1-(1-(4-chlorophenyl)-1H-indazol-5-yloxy)-1-(3-methoxyphenyl)propan-2-yl)-2,2,2-trifluoroacetamide] | 2.9
21 | C[C@H](NC(=O)C(C)(C)F)[C@H](Oc1ccc2c(cnn2-c2ccc(F)cc2)c1)c1ccc(F)c(F)c1 [Example 241, N-[(1R,2S)-1-(3,4-difluorophenyl)-1-[1-(4-fluorophenyl)indazol-5-yl]oxy-propan-2-yl]-2-fluoro-2-methyl-propanamide] | 4.9
22 | COc1c(C)cc([C@@H](Oc2ccc3c(cnn3-c3ccc(F)cc3)c2)[C@H](C)NC(=O)C(C)(C)C)cc1C [Example 182, N-[(1R,2S)-1-[1-(4-fluorophenyl)indazol-5-yl]oxy-1-(4-methoxy-3,5-dimethyl-phenyl)propan-2-yl]-2,2-dimethyl-propanamide] | 5.5
23 | Cc1cnc(C(=O)N[C@@H](C)[C@H](Oc2ccc3c(cnn3-c3ccc(F)cc3)c2)c2ccc(C)c(C)c2)s1 [Example 192, N-[(1R,2S)-1-(3,4-dimethylphenyl)-1-[1-(4-fluorophenyl)indazol-5-yl]oxy-propan-2-yl]-5-methyl-1,3-thiazole-2-carboxamide] | 4.3
24 | Cc1ccc(C)c([C@@H](Oc2ccc3c(cnn3-c3ccc(F)cc3)c2)[C@H](C)NC(=O)C(C)(C)C)c1 [Example 175, N-[(1R,2S)-1-(2,5-dimethylphenyl)-1-[1-(4-fluorophenyl)indazol-5-yl]oxy-propan-2-yl]-2,2-dimethyl-propanamide] | 4.3
25 | CC[C@H](NC(=O)CO)[C@H](Oc1ccc2c(cnn2-c2ccc(F)cc2)c1)c1cccc(OC)c1 [Example 97, N-((1R,2S)-1-(1-(4-fluorophenyl)-1H-indazol-5-yloxy)-1-(3-methoxyphenyl)butan-2-yl)-2-hydroxyacetamide] | 3.3
26 | COCC(=O)N[C@@H](C)[C@H](Oc1ccc2c(cnn2-c2ccccn2)c1)c1ccccc1 [Example 118, 2-Methoxy-N-[1-methyl-2-phenyl-2-(1-pyridin-2-yl-1H-indazol-5-yloxy)-ethyl]acetamide] | 2.9
